# Source: patent publication US20240226107A1, “UBIQUITIN-SPECIFIC PROTEASE 1 (USP1) INHIBITOR” (SIMCERE ZAIMING PHARMACEUTICAL CO., LTD., priority 2021, published 2024)
# Tests used:
# [1] = molecular target: USP1 (Recombinant Human His6-USP1/His6-UAF1 Complex Protein) (Homo sapiens (Human), UniProt O94782); experiment: In vitro activity assay for USP1 (Ub-CHOP2-Reporter deubiquitination assay); type: biochemical; details: 0.5 h incubation at room temperature, read-out: In vitro inhibitory activity of USP1 IC50
# Chain of USP1 (Recombinant Human His6-USP1/His6-UAF1 Complex Protein) (O94782 whole entry): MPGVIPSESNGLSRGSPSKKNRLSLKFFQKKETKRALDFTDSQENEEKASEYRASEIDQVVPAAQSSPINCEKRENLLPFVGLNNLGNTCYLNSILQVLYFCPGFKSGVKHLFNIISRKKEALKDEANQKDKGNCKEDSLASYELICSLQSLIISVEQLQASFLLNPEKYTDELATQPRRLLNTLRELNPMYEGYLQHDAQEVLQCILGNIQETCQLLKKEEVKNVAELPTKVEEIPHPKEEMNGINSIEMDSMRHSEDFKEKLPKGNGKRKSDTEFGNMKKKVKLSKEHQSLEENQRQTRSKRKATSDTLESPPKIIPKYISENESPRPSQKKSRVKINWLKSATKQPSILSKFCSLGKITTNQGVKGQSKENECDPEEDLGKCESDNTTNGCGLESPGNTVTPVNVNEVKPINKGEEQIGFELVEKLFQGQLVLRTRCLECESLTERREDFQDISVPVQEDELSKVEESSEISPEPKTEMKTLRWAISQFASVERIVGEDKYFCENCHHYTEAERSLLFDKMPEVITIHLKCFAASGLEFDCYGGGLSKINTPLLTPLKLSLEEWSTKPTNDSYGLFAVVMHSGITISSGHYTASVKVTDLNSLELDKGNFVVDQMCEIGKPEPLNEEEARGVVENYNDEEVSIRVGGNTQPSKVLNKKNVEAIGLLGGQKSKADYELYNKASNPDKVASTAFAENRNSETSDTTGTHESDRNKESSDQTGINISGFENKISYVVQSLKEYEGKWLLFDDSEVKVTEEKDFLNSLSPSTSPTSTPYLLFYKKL
# Chain of USP1 (Recombinant Human His6-USP1/His6-UAF1 Complex Protein) (Q8TAF3 whole entry partner): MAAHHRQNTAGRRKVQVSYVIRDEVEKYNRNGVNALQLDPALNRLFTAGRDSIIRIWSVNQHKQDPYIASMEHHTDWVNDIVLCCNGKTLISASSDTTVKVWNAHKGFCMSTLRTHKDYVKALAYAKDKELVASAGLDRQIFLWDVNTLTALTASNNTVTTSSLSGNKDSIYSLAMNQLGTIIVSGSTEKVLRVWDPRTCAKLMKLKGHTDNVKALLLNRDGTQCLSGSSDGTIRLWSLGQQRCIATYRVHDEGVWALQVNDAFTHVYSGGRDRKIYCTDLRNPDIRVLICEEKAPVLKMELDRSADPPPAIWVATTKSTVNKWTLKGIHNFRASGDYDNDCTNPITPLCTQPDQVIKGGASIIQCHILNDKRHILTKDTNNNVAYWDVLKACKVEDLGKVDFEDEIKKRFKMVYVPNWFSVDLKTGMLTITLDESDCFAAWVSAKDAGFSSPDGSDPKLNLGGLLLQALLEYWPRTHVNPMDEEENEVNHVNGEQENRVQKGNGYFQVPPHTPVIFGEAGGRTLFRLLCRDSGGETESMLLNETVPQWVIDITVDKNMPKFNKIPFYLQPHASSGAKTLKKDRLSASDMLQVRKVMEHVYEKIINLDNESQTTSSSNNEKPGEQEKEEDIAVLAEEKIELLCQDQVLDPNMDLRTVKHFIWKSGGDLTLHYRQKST
# How it was run: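 His6-USP1/His6-UAF1 complex was mixed with compound in 20 mM Tris-HCl pH 8.0, 2 mM CaCl2, 2 mM β-mercaptoethanol and 0.05% CHAPS. Ub-CHOP2 reporter system plus substrate was added, then incubated 0.5 h at room temperature. IC50 came from a four-parameter logistic fit.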
# [2] = Metabolic stability in vitro in rat hepatocytes; type: in vitro ADME; details: read-out: Intrinsic clearance
# Method: The concentration of each compound in the reaction system was measured by LC/MS/MS to calculate the intrinsic clearance of the compounds to be tested, and evaluate the metabolic stability in vitro in rat hepatocytes.
# To the incubation plate, 198 μL of 0.5×10^6 cells/mL rat hepatocyte mixture and 2.0 μL of 100 μM compound to be tested or positive control were added to initiate reaction. Incubation was performed at 900 rpm at 37° C. […] Then the mixture was vortex-mixed for 5 min. […] Then 100 μL of supernatant of each compound was transferred to a 96-well sample plate, and 100 μL of purified water was added to dilute the sample. The resulting samples were quantified by ion chromatograms. The residual rate was calculated from peak areas of the compounds to be tested or the positive control. The slope k was determined using Microsoft Excel by linear regression of natural logarithm of the residual rate to the incubation time. The intrinsic clearance (in vitro CLint, μL/min/10^6 cells) was calculated from the slope value according to the following equation: […]
# [3] = Solubility (PBS pH 7.4) of compounds from DMSO solution; type: physicochemical; details: aqueous buffer, kinetic from dmso stock, 10 mM DMSO solution into PBS pH 7.4, 25° C., read-out: Calculated solubility
# Method: The solubility (PBS pH 7.4) of a compound to be tested was determined by LC/MS/MS. 6 μL of 10 mM DMSO solution of the compound to be tested was mixed with 194 μL of DMSO to prepare 300 μM compound solution. In 490 μL of water and acetonitrile (1:1) containing an internal standard, 5 μL of the solution and 5 μL of PBS pH 7.4 solution were mixed to prepare 3 μM standard concentration solution of the sample to be tested. The dilution factor of the standard solution can be adjusted according to the strength of response signals in LC/MS.
# To 485 μL of PBS pH 7.4 solution, 15 μL of 10 mM DMSO solution of the compound to be tested was added. […] After shaking, the stir bar was removed, and the sample was transferred to a filter plate and filtered using a vacuum manifold. In 490 μL of water and acetonitrile (1:1) containing an internal standard, 5 μL of filtrate and 5 μL of PBS pH 7.4 solution were mixed to prepare a solution to be tested. The dilution factor can be adjusted according to the solubility value and the strength of response signals in LC/MS.
# The resulting samples were determined by LC/MS/MS. The sample solubility was calculated from peak areas of the solution of the compound to be tested and the standard concentration solution, according to the following equation:
# [formula] • [Sample] is the solubility of the sample to be tested; • Area ratiosample is the ratio of the peak area of sample in the sample to be tested to the peak area of the internal standard; • INJ VOL STD is the injection volume of the standard concentration solution; • DFsample is the dilution factor of the solution of the sample to be tested; • [STD] is the concentration of the standard concentration solution; • INJ VOLsample is the injection volume of the solution of the sample to be tested; and • Area ratio STD is the ratio of the peak area of sample in the standard concentration solution to the peak area of the internal standard.
# PXR = PXR (Homo sapiens (Human), UniProt O75469); experiment: Potential for PXR activation in DPX2 cells; type: cell-based; details: 10 μM, versus 20 μM rifampicin
# Chain of PXR (O75469 whole entry): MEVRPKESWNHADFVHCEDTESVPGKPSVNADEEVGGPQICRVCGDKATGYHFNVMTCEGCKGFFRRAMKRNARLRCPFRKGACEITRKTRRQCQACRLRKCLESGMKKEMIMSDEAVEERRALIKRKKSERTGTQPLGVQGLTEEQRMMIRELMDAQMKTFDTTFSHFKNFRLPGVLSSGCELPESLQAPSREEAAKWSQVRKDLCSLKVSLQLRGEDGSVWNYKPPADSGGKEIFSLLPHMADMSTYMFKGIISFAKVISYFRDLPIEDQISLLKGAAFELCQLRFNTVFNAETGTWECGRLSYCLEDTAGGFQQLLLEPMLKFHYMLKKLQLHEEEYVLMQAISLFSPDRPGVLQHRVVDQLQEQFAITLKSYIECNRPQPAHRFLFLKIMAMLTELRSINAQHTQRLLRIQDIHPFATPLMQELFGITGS
# Method: DMSO solutions of the compounds to be tested and the control compound rifampicin solution were prepared, and diluted with Puracyp dosing medium (Puracyp, Cat. No: D-500-100) at 37° C. to respective test concentrations. The final concentrations of the compounds to be tested were 30 μM, 10 μM, and 1 μM, respectively, and the final concentration of rifampicin was 20 μM. The final concentration of DMSO in the test solution was 0.1%. In addition, 0.1% DMSO solution prepared with Puracyp dosing medium was used as a control.
# DPX2 cells were suspended in Puracyp Culture medium (Puracyp, Cat No.: C-500-100) at a cell density of 4.5×10^5 cell/mL. Then, the suspension was placed on a 96-well culture plate at 100 μL/well for incubation at 37° C. for 24 h. The medium in appropriate wells of the 96-well culture plate was replaced (three times per well) by 100 μL of solution of the compounds to be tested and a control compound solution. After replacement, the plate was incubated at 37° C. for 24 h. The medium was then replaced (three times per well) by a newly prepared test solution of the compounds to be tested and a rifampicin test solution, and the plate was incubated at 37° C. for 24 h.
# The medium in the 96-well culture plate was pipetted and washed twice with PBS. To each well, 50 μL of reagent diluted as required by CellTiter-Fluor™ Cell Viability Assay Kit (Promega, Cat. No.: G6082) was added, and incubated at 37° C. for 0.5 h. The 96-well plate was cooled to room temperature, and the fluorescence value of each well at 505 nm was measured in a fluorescence mode with a microplate reader at an excitation wavelength of 400 nm. Then, 50 μL of reagent prepared as required by One-Glo Luciferase Assay System (Promega, Cat. No.: E6120) was added to each well, and the mixture was incubated at room temperature for 5 min. The luminescence value of each well was read by using a lumen meter.
# Normalized luciferase activity was determined by RLU/RFU, and the RLU and RFU of the samples were mean values of duplicate wells, respectively.
# [formula] • Fold of activation: fold of activation of normalized luciferase; • RLUtest: measured luminescence value of test wells at each test dose of test compounds; • RLUvehicle: measured luminescence value of test wells when tested with the control DMSO solution; • RFUtest: measured fluorescence value of test wells at each test dose of test compounds; • RFUvehicle: measured fluorescence value of test wells when tested with the control DMSO solution.
# The percentage of positive control was calculated as follows:
# % Positive control=(fold activationtest compound−1)/(fold activationpositive control compound−1)×100% • % Positive control: percentage of PXR activation compared with 20 μM rifampicin activation at each test dose of test compounds; • Fold activationtest compound: fold of activation of normalized luciferase at each test dose of test compounds; • Fold activationpositive control compound: fold of activation of normalized luciferase of test compounds under 20 μM rifampicin.
# [4] = Metabolic stability in vitro in human hepatocytes; type: in vitro ADME; details: read-out: Intrinsic clearance
# Method: The concentration of each compound in the reaction system was measured by LC/MS/MS to calculate the intrinsic clearance of the compounds to be tested, and evaluate the metabolic stability in vitro in human hepatocytes.
# To the incubation plate, 198 μL of 0.5×10^6 cells/mL human hepatocyte mixture and 2.0 μL of 100 μM compound to be tested or positive control were added to initiate reaction. Incubation was performed at 900 rpm at 37° C. […] Then the mixture was vortex-mixed for 5 min. […] Then 100 μL of supernatant of each compound was transferred to a 96-well sample plate, and 100 μL of purified water was added to dilute the sample.
# The resulting samples were quantified by ion chromatograms. The residual rate was calculated from peak areas of the compounds to be tested or the positive control. The slope k was determined using Microsoft Excel by linear regression of natural logarithm of the residual rate to the incubation time. The intrinsic clearance (in vitro CLint, μL/min/10^6 cells) was calculated from the slope value according to the following equation: […]
# 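Wherever GI50 is given: MDA-MB-436 proliferation over 7 days with compound, viability read as ATP luminescence (CellTiter-Glo), inhibition relative to DMSO-only wells, day 0 signal as background, GI50 from four-parameter fit.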
# Method for MDA-MB-436 cells: Assay based on CellTiter-Glo luminescent cell viability assay system.
# The assay kit (CellTiter-Glo® Luminescent Cell Viability Assay) was purchased from Promega, with Cat. No. of G7573, and was stored at −30° C. after subpackage. The kit is a homogeneous assay method for assaying the number of viable cells in a culture based on quantitative determination of ATP. The kit produces a luminescence signal proportional to the amount of ATP present, and the amount of ATP is directly proportional to the number of cells in the culture.
# The cultured cells were trypsinized, collected and centrifuged, then resuspended at an adjusted concentration in a culture solution (DMEM+10% FBS), and cultured overnight on a 384-well plate (400 cells/20 μl/well) in a cell incubator with 5% CO2 at 37° C. An ECHO instrument was used to added the compound and pure DMSO onto each well of the 384-well plate. The total volume of the compound and DMSO is 100 nL, and the instrument obtains gradient diluted sample concentrations through different ratios. To each well, 30 μL of culture solution was added, and after mixing by centrifugal oscillation and re-centrifugation, the cells were cultured in a cell incubator for 7 days (one column of cells was subjected to CTG assay on the day of dosing). After day 7, 25 μL of CTG assay solution was added to each well, and after mixing by centrifugal oscillation and re-centrifugation, the cells were placed at room temperature away from light for 10 min. In terms of chemiluminescence signals, an Envision plate reader (PerkinElmer, emission wavelength: 400-700 nm) was used to measure a signal in each well. The chemiluminescence value [RLU]cpd on day 7 was obtained for the treatment group, the chemiluminescence value [RLU]cell on day 7 was obtained for the non-treatment group (given DMSO only), and the chemiluminescence value [RLU]background on day 0 was obtained for the parallel non-treatment group (given DMSO only) by CTG assay on day 0. […] In the following equation, x represents the concentration of the compound in a logarithmic form; and F(x) represents an effect value (inhibition rate of proliferation at the concentration): F(x)=(A+((B−A)/(1+((C/x)^D)))). A, B, C, and D are four parameters.
SMILES,IC50 [1] [nM],hepatocyte CLint at 1 μM [2] [µL/min/1e6 cells],solubility at 2 h [3] [µM],GI50 (MDA-MB-436 cells) [nM],PXR activation (% Positive control) (PXR),hepatocyte CLint at 1 μM [4] [µL/min/1e6 cells]
"COc1ncnc(C2CC2)c1-c1ncc2c(n1)N(Cc1ccc(-c3nc(C(F)(F)F)cn3C)cc1)C(C)C(=O)N2C (stereo not drawn) [Compound 26, 2-(4-cyclopropyl-6-methoxypyrimidin-5-yl)-5,7-dimethyl-8-(4-(1-methyl-4-(trifluoromethyl)-1H-imidazol-2-yl)benzyl)-7,8-dihydropteridin-6(5H)-one]",41.4,4.2,115,41.1,,
"COc1ncnc(C2CC2)c1-c1ncc2c(n1)N(Cc1ccc(-c3nc(C(F)(F)F)cn3C(F)F)cc1)CC(=O)N2C [Compound 28, 2(4-cyclopropyl-6-methoxypyrimidin-5-yl)-8-((4-(1-(difluoromethyl)-4-(trifluoromethyl)-1H-imidazol-2-yl)phenyl)methyl)-5-methyl-7,8-dihydropteridin-6(5H)-one]",33.7,6.3,73,51.1,,
"CCN1C(=O)CN(Cc2ccc(-c3nc(C(F)(F)F)cn3C)cc2)c2nc(-c3c(OC)ncnc3C3CC3)ncc21 [Compound 33, 2-(4-cyclopropyl-6-methoxypyrimidin-5-yl)-5-ethyl-8-(4-(1-methyl-4-(trifluoromethyl)-1H-imidazol-2-yl)benzyl)-7,8-dihydropteridin-6(5H)-one]",31.3,4.3,,53.8,,
"CCn1cc(C(F)(F)F)nc1-c1ccc(CN2CC(=O)N(C)c3cnc(-c4c(OC)ncnc4C4CC4)nc32)cc1 [Compound 40, 2-(4-cyclopropyl-6-methoxypyrimidin-5-yl)-5-methyl-8-(4-(1-ethyl-4-(trifluoromethyl)-1H-imidazol-2-yl)benzyl)-7,8-dihydropteridin-6(5H)-one]",26.9,,122,22.6,,
"COc1ncnc(C2CC2)c1-c1ncc2c(n1)N(Cc1ccc(-c3nc(C(F)(F)F)cn3C(C)C)cc1)CC(=O)N2C [Compound 41, 2-(4-cyclopropyl-6-methoxypyrimidin-5-yl)-5-methyl-8-(4-(1-isopropyl-4-(trifluoromethyl)-1H-imidazol-2-yl)benzyl)-7,8-dihydropteridin-6(5H)-one]",19,,88,28.4,,

# Second part, the compound after the results:
IC50 [1] [nM],hepatocyte CLint at 1 μM [2] [µL/min/1e6 cells],solubility at 2 h [3] [µM],GI50 (MDA-MB-436 cells) [nM],PXR activation (% Positive control) (PXR),hepatocyte CLint at 1 μM [4] [µL/min/1e6 cells],SMILES
22.6,,,32.6,3.2,,"COc1ncnc(C2CC2)c1-c1ncc2c(n1)N(Cc1ccc(-n3nc(C(F)(F)F)cc3C)cc1)CC(=O)N2C [Compound 43, 2-(4-cyclopropyl-6-methoxypyrimidin-5-yl)-5-methyl-8-(4-(5-methyl-3-(trifluoromethyl)-1H-pyrazol-1-yl)benzyl)-7,8-dihydropteridin-6(5H)-one]"
19.9,,88,53.2,,4.26,"COc1ncnc(C2CC2)c1-c1ncc2c(n1)N(Cc1ccc3c(c1)CCCn1cc(C(F)(F)F)nc1-3)CC(=O)N2C [Compound 45, 2-(4-cyclopropyl-6-methoxypyrimidin-5-yl)-5-methyl-8-((2-(trifluoromethyl)-6,7-dihydro-5H-benzo[c]imidazo[1,2-a]azepin-9-yl)methyl)-7,8-dihydropteridin-6(5H)-one]"
23.2,,,59.6,20.9,,"COc1ncnc(C2CC2)c1-c1ncc2c(n1)N(Cc1ccc(-c3nc(C(F)(F)F)cn3C)cc1)C(=O)OC21CC1 [Compound 52, 7′-(4-cyclopropyl-6-methoxypyrimidin-5-yl)-1′-(4-(1-methyl-4-(trifluoromethyl)-1H-imidazol-2-yl)benzyl)spiro[cyclopropane-1,4′-pyrimido[4,5-d][1,3]oxazine]-2′(1′H)-one]"
27.2,,115,29.6,,,"COc1ncnc(C2CC2)c1-c1ncc2c(n1)N(Cc1cc(F)c(-c3nc(C(F)(F)F)cn3C)c(F)c1)CC(=O)N2C [Compound 66, 2-(4-cyclopropyl-6-methoxypyrimidin-5-yl)-5-methyl-8-(3,5-difluoro-4-(1-methyl-4-(trifluoromethyl)-1H-imidazol-2-yl)benzyl)-7,8-dihydropteridin-6(5H)-one]"
37.9,,98,93.1,,,"COc1ncnc(C2CC2)c1-c1ncc2c(n1)N(Cc1ccc(-c3nc(C(F)(F)F)cn3C)c(F)c1)C(C)C(=O)N2C (stereo not drawn) [Compound 70, 2-(4-cyclopropyl-6-methoxypyrimidin-5-yl)-8-(3-fluoro-4-(1-methyl-4-(trifluoromethyl)-1H-imidazol-2-yl)benzyl)-5,7-dimethyl-7,8-dihydropteridin-6(5H)-one]"
